According to PubChem BioAssay (NCI):
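Step 1: Grow cells in 96-well plates. Step 2: Expose to compound for 48 hours at 5 concentrations. Step 3: Interpolate endpoints linearly; if unreached, use highest concentration. The concentration for full growth arrest is given as TGI.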

Tests used:
Assay in all cases: NCI tumour cell line growth inhibition, 48 h
786-0 renal = test system: 786-0 renal
A549 NSCLC = test system: A549 NSCLC
ACHN renal = test system: ACHN renal
BT-549 breast = test system: BT-549 breast
CAKI-1 renal = test system: CAKI-1 renal
CCRF-CEM leukemia = test system: CCRF-CEM leukemia
COLO 205 colon = test system: COLO 205 colon
DU-145 prostate = test system: DU-145 prostate
EKVX NSCLC = test system: EKVX NSCLC
HCC-2998 colon = test system: HCC-2998 colon
HCT-116 colon = test system: HCT-116 colon
HCT-15 colon = test system: HCT-15 colon
HL-60(TB) leukemia = test system: HL-60(TB) leukemia
HOP-92 NSCLC = test system: HOP-92 NSCLC
HS 578T breast = test system: HS 578T breast
IGROV1 ovarian = test system: IGROV1 ovarian
K-562 leukemia = test system: K-562 leukemia
KM12 colon = test system: KM12 colon
LOX IMVI melanoma = test system: LOX IMVI melanoma
M14 melanoma = test system: M14 melanoma
MALME-3M melanoma = test system: MALME-3M melanoma
MCF7 breast = test system: MCF7 breast
MDA-MB-231 breast = test system: MDA-MB-231 breast
MDA-MB-435 = test system: MDA-MB-435
MDA-N = test system: MDA-N
MOLT-4 leukemia = test system: MOLT-4 leukemia
NCI-H226 lung = test system: NCI-H226 lung
NCI-H460 lung = test system: NCI-H460 lung
NCI-H522 lung = test system: NCI-H522 lung
NCI/ADR-RES ovarian = test system: NCI/ADR-RES ovarian
OVCAR-3 ovarian = test system: OVCAR-3 ovarian
OVCAR-4 ovarian = test system: OVCAR-4 ovarian
OVCAR-5 ovarian = test system: OVCAR-5 ovarian
OVCAR-8 ovarian = test system: OVCAR-8 ovarian
PC-3 prostate = test system: PC-3 prostate
RPMI-8226 leukemia = test system: RPMI-8226 leukemia
RXF 393 renal = test system: RXF 393 renal
SF-268 CNS = test system: SF-268 CNS
SF-295 CNS = test system: SF-295 CNS
SF-539 CNS = test system: SF-539 CNS
SK-MEL-2 melanoma = test system: SK-MEL-2 melanoma
SK-MEL-28 melanoma = test system: SK-MEL-28 melanoma
SK-MEL-5 melanoma = test system: SK-MEL-5 melanoma
SN12C renal = test system: SN12C renal
SNB-19 CNS = test system: SNB-19 CNS
SNB-75 CNS = test system: SNB-75 CNS
SR leukemia = test system: SR leukemia
SW-620 colon = test system: SW-620 colon
T-47D breast = test system: T-47D breast
TK-10 renal = test system: TK-10 renal
U251 CNS = test system: U251 CNS
UACC-257 melanoma = test system: UACC-257 melanoma
UACC-62 melanoma = test system: UACC-62 melanoma
UO-31 renal = test system: UO-31 renal
A498 renal = test system: A498 renal
HOP-62 NSCLC = test system: HOP-62 NSCLC
HT29 colon = test system: HT29 colon
NCI-H23 lung = test system: NCI-H23 lung
SK-OV-3 ovarian = test system: SK-OV-3 ovarian

SMILES: Cc1cc2c(cc1C)C(=O)C1(C2)Cc2c(C)ccc(C)c2C1=O (stereo not given)
- TGI (786-0 renal): > 100 µM
- TGI (A549 NSCLC): > 100 µM
- TGI (ACHN renal): > 100 µM
- TGI (BT-549 breast): > 100 µM
- TGI (CAKI-1 renal): > 100 µM
- TGI (CCRF-CEM leukemia): > 100 µM
- TGI (COLO 205 colon): > 100 µM
- TGI (DU-145 prostate): > 100 µM
- TGI (EKVX NSCLC): > 100 µM
- TGI (HCC-2998 colon): > 100 µM
- TGI (HCT-116 colon): > 100 µM
- TGI (HCT-15 colon): > 100 µM
- TGI (HL-60(TB) leukemia): > 100 µM
- TGI (HOP-92 NSCLC): > 100 µM
- TGI (HS 578T breast): > 100 µM
- TGI (IGROV1 ovarian): > 100 µM
- TGI (K-562 leukemia): > 100 µM
- TGI (KM12 colon): > 100 µM
- TGI (LOX IMVI melanoma): > 100 µM
- TGI (M14 melanoma): > 100 µM
- TGI (MALME-3M melanoma): > 100 µM
- TGI (MCF7 breast): > 100 µM
- TGI (MDA-MB-231 breast): > 100 µM
- TGI (MDA-MB-435): > 100 µM
- TGI (MDA-N): > 100 µM
- TGI (MOLT-4 leukemia): > 100 µM
- TGI (NCI-H226 lung): > 100 µM
- TGI (NCI-H460 lung): > 100 µM
- TGI (NCI-H522 lung): > 100 µM
- TGI (NCI/ADR-RES ovarian): > 100 µM
- TGI (OVCAR-3 ovarian): > 100 µM
- TGI (OVCAR-4 ovarian): > 100 µM
- TGI (OVCAR-5 ovarian): > 100 µM
- TGI (OVCAR-8 ovarian): > 100 µM
- TGI (PC-3 prostate): > 100 µM
- TGI (RPMI-8226 leukemia): > 100 µM
- TGI (RXF 393 renal): > 100 µM
- TGI (SF-268 CNS): > 100 µM
- TGI (SF-295 CNS): > 100 µM
- TGI (SF-539 CNS): > 100 µM
- TGI (SK-MEL-2 melanoma): > 100 µM
- TGI (SK-MEL-28 melanoma): > 100 µM
- TGI (SK-MEL-5 melanoma): > 100 µM
- TGI (SN12C renal): > 100 µM
- TGI (SNB-19 CNS): > 100 µM
- TGI (SNB-75 CNS): > 100 µM
- TGI (SR leukemia): > 100 µM
- TGI (SW-620 colon): > 100 µM
- TGI (T-47D breast): > 100 µM
- TGI (TK-10 renal): > 100 µM
- TGI (U251 CNS): > 100 µM
- TGI (UACC-257 melanoma): > 100 µM
- TGI (UACC-62 melanoma): > 100 µM
- TGI (UO-31 renal): > 100 µM

SMILES: O=C(/C=C/c1ccc(OCc2cccc(Cl)c2)cc1)NO
- TGI (786-0 renal): 23.9 µM
- TGI (A498 renal): 27.8 µM
- TGI (A549 NSCLC): 51.2 µM
- TGI (ACHN renal): 23.5 µM
- TGI (BT-549 breast): 80.7 µM
- TGI (CAKI-1 renal): 34.2 µM
- TGI (CCRF-CEM leukemia): 26.6 µM
- TGI (COLO 205 colon): 32 µM
- TGI (DU-145 prostate): 40.8 µM
- TGI (EKVX NSCLC): > 100 µM
- TGI (HCC-2998 colon): 31 µM
- TGI (HCT-116 colon): 25.8 µM
- TGI (HCT-15 colon): 20.8 µM
- TGI (HL-60(TB) leukemia): 35.9 µM
- TGI (HOP-62 NSCLC): > 100 µM
- TGI (HOP-92 NSCLC): 33.8 µM
- TGI (HS 578T breast): > 100 µM
- TGI (HT29 colon): 28.2 µM
- TGI (IGROV1 ovarian): 38 µM
- TGI (K-562 leukemia): > 100 µM
- TGI (KM12 colon): 43 µM
- TGI (LOX IMVI melanoma): 24.4 µM
- TGI (M14 melanoma): > 100 µM
- TGI (MCF7 breast): > 100 µM
- TGI (MDA-MB-231 breast): 44.1 µM
- TGI (MDA-MB-435): 53.3 µM
- TGI (MDA-N): 44.5 µM
- TGI (MOLT-4 leukemia): 18 µM
- TGI (NCI-H226 lung): 35.6 µM
- TGI (NCI-H23 lung): 26 µM
- TGI (NCI-H460 lung): 41.9 µM
- TGI (NCI-H522 lung): 49.4 µM
- TGI (NCI/ADR-RES ovarian): 23.3 µM
- TGI (OVCAR-3 ovarian): > 100 µM
- TGI (OVCAR-4 ovarian): 38 µM
- TGI (OVCAR-5 ovarian): 71.5 µM
- TGI (OVCAR-8 ovarian): 20.3 µM
- TGI (PC-3 prostate): 47.4 µM
- TGI (RPMI-8226 leukemia): 44.8 µM
- TGI (RXF 393 renal): 42.4 µM
- TGI (SF-268 CNS): > 100 µM
- TGI (SF-295 CNS): 50.1 µM
- TGI (SF-539 CNS): > 100 µM
- TGI (SK-MEL-2 melanoma): 53.7 µM
- TGI (SK-MEL-28 melanoma): > 100 µM
- TGI (SK-MEL-5 melanoma): 45.7 µM
- TGI (SK-OV-3 ovarian): 49.3 µM
- TGI (SN12C renal): 49.4 µM
- TGI (SNB-19 CNS): 60.7 µM
- TGI (SNB-75 CNS): > 100 µM
- TGI (SR leukemia): 11.3 µM
- TGI (SW-620 colon): > 100 µM
- TGI (T-47D breast): 36.7 µM
- TGI (TK-10 renal): 67.1 µM
- TGI (U251 CNS): 47.9 µM
- TGI (UACC-257 melanoma): > 100 µM
- TGI (UACC-62 melanoma): 27.9 µM
- TGI (UO-31 renal): 18.7 µM

SMILES: [N-]=[N+]=Nc1cc(=O)n2c3c(cccc13)CCC2
- TGI (786-0 renal): > 100 µM
- TGI (A498 renal): > 100 µM
- TGI (A549 NSCLC): > 100 µM
- TGI (ACHN renal): > 100 µM
- TGI (BT-549 breast): > 100 µM
- TGI (CCRF-CEM leukemia): > 100 µM
- TGI (COLO 205 colon): > 100 µM
- TGI (DU-145 prostate): > 100 µM
- TGI (EKVX NSCLC): > 100 µM
- TGI (HCC-2998 colon): > 100 µM
- TGI (HCT-116 colon): > 100 µM
- TGI (HCT-15 colon): > 100 µM
- TGI (HL-60(TB) leukemia): > 100 µM
- TGI (HOP-62 NSCLC): > 100 µM
- TGI (HOP-92 NSCLC): > 100 µM
- TGI (HS 578T breast): > 100 µM
- TGI (HT29 colon): > 100 µM
- TGI (IGROV1 ovarian): > 100 µM
- TGI (K-562 leukemia): > 100 µM
- TGI (KM12 colon): > 100 µM
- TGI (LOX IMVI melanoma): > 100 µM
- TGI (M14 melanoma): > 100 µM
- TGI (MALME-3M melanoma): > 100 µM
- TGI (MCF7 breast): > 100 µM
- TGI (MDA-MB-231 breast): > 100 µM
- TGI (MDA-MB-435): > 100 µM
- TGI (MDA-N): > 100 µM
- TGI (MOLT-4 leukemia): > 100 µM
- TGI (NCI-H226 lung): > 100 µM
- TGI (NCI-H23 lung): > 100 µM
- TGI (NCI-H460 lung): > 100 µM
- TGI (NCI-H522 lung): > 100 µM
- TGI (NCI/ADR-RES ovarian): > 100 µM
- TGI (OVCAR-3 ovarian): > 100 µM
- TGI (OVCAR-4 ovarian): > 100 µM
- TGI (OVCAR-8 ovarian): > 100 µM
- TGI (PC-3 prostate): > 100 µM
- TGI (RPMI-8226 leukemia): > 100 µM
- TGI (RXF 393 renal): > 100 µM
- TGI (SF-268 CNS): > 100 µM
- TGI (SF-295 CNS): > 100 µM
- TGI (SF-539 CNS): > 100 µM
- TGI (SK-MEL-28 melanoma): > 100 µM
- TGI (SN12C renal): > 100 µM
- TGI (SNB-75 CNS): > 100 µM
- TGI (SR leukemia): > 100 µM
- TGI (SW-620 colon): > 100 µM
- TGI (T-47D breast): > 100 µM
- TGI (TK-10 renal): > 100 µM
- TGI (U251 CNS): > 100 µM
- TGI (UACC-257 melanoma): > 100 µM
- TGI (UACC-62 melanoma): > 100 µM
- TGI (UO-31 renal): > 100 µM
